Like-named read-outs stand apart in the source and are kept apart here.
Key:
[1] = system: blood pressure; conditions: for blood pressure after first injection: Clinical Example 12, 2 g
Source text: A person who had suffered from high blood pressure for a long time underwent an urgent operation for the removal of an intra-cerebral hematoma. […] A person who had suffered from high blood pressure and cardiac arrhythmias, was undergoing an operation for the removal of a bilateral sub-dural hematoma. […] A person of generally good health but who had undergone surgery in the previous month for the excision of a cancer of the cecum, was undergoing an operation for a cerebral metastasis. […] A perfusion of two units of blood (800 ml ) was effected to compensate for the moderate blood losses.

[2] = system: free fatty acids in the plasma; experiment: Non-esterified fatty acids in the plasma (DOLE); format: in vivo, rabbit; conditions: 1 g/kg
Protocol: Doses of 1 and 2 mg of adrenalin were introduced subcutaneously into rabbits weighing 2.5 to 3.5 kg.
FIGS. 8, 9 and 10 show the variation in the percentage of non-esterified fatty acids in the plasma as a function of the time. […]

[3] = system: reticulo-endothelial system; experiment: Phagocytic activity of the reticulo-endothelial system, carbon clearance (HALPERN); format: in vivo, rabbit; conditions: 1 g/kg
Source text: That technique is based on the study of the kinetics of the disappearance in the blood of particles of carbon injected into the vein. The kinetics of disappearance follow the equation [formula] in which formula C1 is the concentration of carbon in the blood at time T1 and C2 is the concentration of carbon in the blood at time T2, K being a constant. The constant K, called phagocytic index, represents the phagocytic activity of the cells of the reticule-endothelial system under the experimental conditions. For the tests, the technique and carbon suspension described by […]. Physiol. of Paris, Vol. 50, p. […] The study was done on rabbits of the same stock, male or female, or an average weight of about 2.5 kg, devided into four batches of four animals each. The first batch was used as controls and received, by slow intravenous injection, 10 ml of a 0.8% solution of sodium chloride ten minutes before the injection of 4 mg of carbon per 100 g of animal. […] In all the tests, a total volume of 10 ml was injected with a fairly closely related injection speed (less than five minutes).

[4] = system: cerebral anoxemia by clamping; experiment: Cerebral anoxemia by clamping in rabbits; format: in vivo, rabbit; conditions: 1 g/kg intravenously
Protocol: The tests were done on rabbits weighing an average of 2.5 kg. The fastening of the cranial electrodes was done under local anaesthesia with procaine, as was the placing of the catheters in a femoral artery to record the blood pressure. The tracheotomies and tracheal intubations were also done under local anaesthesia using procaine. The temperature was maintained at around 38° C. Three types of anoxemia were investigated; 1. Elective cerebral anoxemia by stopping cerebral circulation (anoxemia by clamping): Artificial ventilation was set up by an apparatus allowing constant volume and speed of respiration. An upper sternatomy of the manubrium was carried out; the left sub-[…] artery, the left carotid artery and the right trucus brachiocephalicus were isolated. The clamps were then put into place according to the technique described by […] and LABORIT (Conference of d Agressologie Cycle, Vol. 1, p. 15 ff of 1959). The artificially ventilated animal preserved good peripheral cardiovascular dynamics during the ischemia and supported 120 seconds of clamping without severe hypotension. 3. Nitrogen anoxemia: The animal was curarized and artifically ventilated as indicated above. Anoxemia was obtained by connecting a nitrogen gasbag to the air intake of the BEAUDOUIN apparatus; general non-hypercapnic anoxemia occurred. Air was […] seconds. […] A latency of 30 minutes was observed before anoxemia was caused.

[5] = system: electro-encephalograms; conditions: in vivo

**Q.** Which “blood pressure after first injection” value ([1]; after two hours) does the source give for `O=C(CO)CO` [dihydroxyacetone] here?
**A.** 95 mm Hg

**Q.** And the “blood pressure after first injection” value ([1]; one hour, from 90)?
**A.** 130 mm Hg

**Q.** What about the “blood pressure after second injection” value ([1]; Clinical Example 12, second 2 g in 10% glucose solution, remained) of the same compound?
**A.** 130 mm Hg

**Q.** What about the “blood pressure after injection” value ([1]; Clinical Example 13, 2 g over 15 minutes, from 60) of the same compound?
**A.** 100 mm Hg

**Q.** And the “blood pressure after injection” value ([1]; Clinical Example 14, 2 g, 45 minutes later)?
**A.** 170 mm Hg

**Q.** And the “blood pressure after injection” value ([1]; Clinical Example 14, 2 g, within 20 minutes, from 70)?
**A.** 130 mm Hg

**Q.** What about the “blood pressure after perfusion” value ([1]; Clinical Example 15, 2 g, within 15 minutes, from 60) of the same compound?
**A.** 110 mm Hg

**Q.** What about the “blood pressure after injection, stabilized” value ([1]; Clinical Example 16, 3 g) of the same compound?
**A.** 100 mm Hg

**Q.** What about the “blood pressure after injection, initial rise” value ([1]; Clinical Example 16, 3 g, from 80) of the same compound?
**A.** 120 mm Hg

**Q.** And the post-operative complications ([1]; human, in vivo)?
**A.** no post-operative complications

**Q.** What about the undesirable side effects ([1]; human, in vivo) of the same compound?
**A.** without undesirable side effects

**Q.** What about the “percentages of non-esterified fatty acids in the plasma after adrenalin” value ([2]; after 1 mg of adrenalin, fed animals, FIG. 10) of the same compound?
**A.** general tendency toward increased percentages

**Q.** And the “percentage of non-esterified fatty acids in the plasma, fasted animals” value ([2]; animals without food for 24 hours, FIG. 11)?
**A.** return to normal

**Q.** And the “speed of purification of the carbon particles with respect to control animals” value ([3]; 10 minutes before lactic acid 0.9 g/kg, FIG. 6)?
**A.** considerably increases

**Q.** And the “speed at which the carbon particles disappear with respect to control animals” value ([3]; FIG. 5)?
**A.** practically no change

**Q.** And the “recuperation latency, anoxemia by clamping” value [4]?
**A.** no improvement at all

**Q.** What about the “recuperation time, anoxemia by clamping” value [4] of the same compound?
**A.** no improvement

**Q.** And the “survival time, anoxemia by clamping” value ([4]; prior perfusion)?
**A.** minor

**Q.** And the “formation of slow waves” value [5]?
**A.** does not seem to favour the formation of slow waves

— US4049795A, “Treatment of hemorrhagic shock” (priority 1974, dated 1977)
